Laboratory results reported in the supplement of paper PMC10307832.

How the values were obtained:
Assay in all cases: relative viability (nuclei count vs DMSO), 5 days (fraction); higher = more cells survive
[1] = tested on: COR-L23
Procedure, shortened: (§1)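 Medians of duplicate plates are given as relative viability. That measure is the nuclei count in treated wells divided by the count in vehicle wells. Counts were taken on 4× images of lung cancer cell lines in 1536-well plates, 5 days after pin-tool dosing the day after seeding with one drug alone or a fixed anchor-drug dose plus five library-drug doses (not always all listed) in √10 steps.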

[2] = tested on: EPLC-272H
Procedure, shortened: as §1

[3] = tested on: HARA
Procedure, shortened: as §1

[4] = tested on: HCC-15
Procedure, shortened: as §1

[5] = tested on: HCC-44
Procedure, shortened: as §1

[6] = tested on: HOP-62
Procedure, shortened: as §1

[7] = tested on: LC-2-ad
Procedure, shortened: as §1

[8] = tested on: LU99A
Procedure, shortened: as §1

[9] = tested on: NCI-H1355
Procedure, shortened: as §1

[10] = tested on: NCI-H1651
Procedure, shortened: as §1

[11] = tested on: NCI-H1915
Procedure, shortened: as §1

[12] = tested on: NCI-H1993
Procedure, shortened: as §1

[13] = tested on: NCI-H2023
Procedure, shortened: as §1

[14] = tested on: NCI-H2085
Procedure, shortened: as §1

[15] = tested on: NCI-H2126
Procedure, shortened: as §1

[16] = tested on: NCI-H2347
Procedure, shortened: as §1

[17] = tested on: NCI-H838
Procedure, shortened: as §1

[18] = tested on: PC-14
Procedure, shortened: as §1

[19] = tested on: SW 1573
Procedure, shortened: as §1

[20] = tested on: UMC-11
Procedure, shortened: as §1

`Cc1sc2c(c1C)C(c1ccc(Cl)cc1)=N[C@@H](CC(=O)OC(C)(C)C)c1nnc(C)n1-2` [JQ1] + CC1(C)CCC(c2ccc(Cl)cc2)=C(CN2CCN(c3ccc(C(=O)NS(=O)(=O)c4ccc(N[C@H](CCN5CCOCC5)CSc5ccccc5)c(S(=O)(=O)C(F)(F)F)c4)cc3)CC2)C1 [Navitoclax] (partner 0.5 µM) showed a relative viability ([1]; first compound 0.04 µM) of 1.02, a relative viability ([1]; first compound 0.1265 µM) of 0.763 and a relative viability ([1]; first compound 0.4 µM) of 0.858. For the same compound, the relative viability ([1]; first compound 1.265 µM) was 0.357, the relative viability ([1]; first compound 4 µM) was 0.155 and the relative viability ([2]; first compound 0.04 µM) was 1.14. The relative viability ([2]; first compound 0.1265 µM) was 0.958, the relative viability ([2]; first compound 0.4 µM) was 1.06 and the relative viability ([2]; first compound 1.265 µM) was 0.462. For the same compound, the relative viability ([2]; first compound 4 µM) was 0.321, the relative viability ([3]; first compound 0.04 µM) was 1.11 and the relative viability ([3]; first compound 0.1265 µM) was 1. The relative viability ([3]; first compound 0.4 µM) was 0.781, the relative viability ([3]; first compound 1.265 µM) was 0.261 and the relative viability ([3]; first compound 4 µM) was 0.234. The relative viability ([4]; first compound 0.04 µM) was 0.692, the relative viability ([4]; first compound 0.4 µM) was 0.532 and the relative viability ([4]; first compound 1.265 µM) was 0.331. It also gave a relative viability ([4]; first compound 4 µM) of 0.299, a relative viability ([5]; first compound 0.04 µM) of 1.02 and a relative viability ([5]; first compound 0.1265 µM) of 0.802. For the same compound, the relative viability ([5]; first compound 0.4 µM) was 0.705, the relative viability ([5]; first compound 1.265 µM) was 0.265 and the relative viability ([5]; first compound 4 µM) was 0.389. The relative viability ([6]; first compound 0.04 µM) was 0.926, the relative viability ([6]; first compound 0.1265 µM) was 0.841 and the relative viability ([6]; first compound 0.4 µM) was 0.516. For the same compound, the relative viability ([6]; first compound 1.265 µM) was 0.133, the relative viability ([6]; first compound 4 µM) was 0.0774 and the relative viability ([7]; first compound 0.04 µM) was 0.486. For the same compound, the relative viability ([7]; first compound 0.1265 µM) was 0.58, the relative viability ([7]; first compound 0.4 µM) was 0.376 and the relative viability ([7]; first compound 1.265 µM) was 0.196. The relative viability ([7]; first compound 4 µM) was 0.175, the relative viability ([8]; first compound 0.04 µM) was 0.746 and the relative viability ([8]; first compound 0.1265 µM) was 0.699. The relative viability ([8]; first compound 0.4 µM) was 0.201, the relative viability ([8]; first compound 1.265 µM) was 0.137 and the relative viability ([8]; first compound 4 µM) was 0.146. The relative viability ([9]; first compound 0.04 µM) was 0.87, the relative viability ([9]; first compound 0.1265 µM) was 0.972 and the relative viability ([9]; first compound 0.4 µM) was 0.85. It also gave a relative viability ([9]; first compound 1.265 µM) of 0.52, a relative viability ([9]; first compound 4 µM) of 0.476 and a relative viability ([10]; first compound 0.04 µM) of 0.928. It also gave a relative viability ([10]; first compound 0.1265 µM) of 0.819, a relative viability ([10]; first compound 0.4 µM) of 0.701 and a relative viability ([10]; first compound 1.265 µM) of 0.525. For the same compound, the relative viability ([10]; first compound 4 µM) was 0.439, the relative viability ([11]; first compound 0.04 µM) was 0.781 and the relative viability ([11]; first compound 0.1265 µM) was 0.567. It also gave a relative viability ([11]; first compound 0.4 µM) of 0.698, a relative viability ([11]; first compound 1.265 µM) of 0.419 and a relative viability ([11]; first compound 4 µM) of 0.198. For the same compound, the relative viability ([12]; first compound 0.04 µM) was 0.929, the relative viability ([12]; first compound 0.1265 µM) was 0.811 and the relative viability ([12]; first compound 0.4 µM) was 0.861. For the same compound, the relative viability ([12]; first compound 1.265 µM) was 0.85, the relative viability ([12]; first compound 4 µM) was 0.875 and the relative viability ([13]; first compound 0.04 µM) was 0.98. It also gave a relative viability ([13]; first compound 0.1265 µM) of 0.915, a relative viability ([13]; first compound 0.4 µM) of 0.846 and a relative viability ([13]; first compound 1.265 µM) of 0.334. The relative viability ([13]; first compound 4 µM) was 0.369, the relative viability ([14]; first compound 0.04 µM) was 1.08 and the relative viability ([14]; first compound 0.1265 µM) was 1.1. For the same compound, the relative viability ([14]; first compound 0.4 µM) was 0.902, the relative viability ([14]; first compound 1.265 µM) was 0.561 and the relative viability ([14]; first compound 4 µM) was 0.643. For the same compound, the relative viability ([15]; first compound 0.04 µM) was 0.892, the relative viability ([15]; first compound 0.1265 µM) was 0.733 and the relative viability ([15]; first compound 0.4 µM) was 0.843. The relative viability ([15]; first compound 1.265 µM) was 0.578, the relative viability ([15]; first compound 4 µM) was 0.555 and the relative viability ([16]; first compound 0.04 µM) was 0.782. It also gave a relative viability ([16]; first compound 0.1265 µM) of 0.691, a relative viability ([16]; first compound 0.4 µM) of 0.571 and a relative viability ([16]; first compound 1.265 µM) of 0.316. For the same compound, the relative viability ([16]; first compound 4 µM) was 0.286, the relative viability ([17]; first compound 0.04 µM) was 1.1 and the relative viability ([17]; first compound 0.1265 µM) was 0.592. For the same compound, the relative viability ([17]; first compound 0.4 µM) was 0.662, the relative viability ([17]; first compound 1.265 µM) was 0.355 and the relative viability ([17]; first compound 4 µM) was 0.247. For the same compound, the relative viability ([18]; first compound 0.04 µM) was 0.944, the relative viability ([18]; first compound 0.1265 µM) was 0.957 and the relative viability ([18]; first compound 0.4 µM) was 0.937. The relative viability ([18]; first compound 1.265 µM) was 0.672, the relative viability ([18]; first compound 4 µM) was 0.303 and the relative viability ([19]; first compound 0.04 µM) was 0.984. It also gave a relative viability ([19]; first compound 0.1265 µM) of 0.756, a relative viability ([19]; first compound 0.4 µM) of 0.827 and a relative viability ([19]; first compound 1.265 µM) of 0.536. The relative viability ([19]; first compound 4 µM) was 0.239, the relative viability ([20]; first compound 0.04 µM) was 0.266 and the relative viability ([20]; first compound 0.1265 µM) was 0.292. The relative viability ([20]; first compound 0.4 µM) was 0.205, the relative viability ([20]; first compound 1.265 µM) was 0.134 and the relative viability ([20]; first compound 4 µM) was 0.142.
